# Values joined by “and” are separate entries in the source; they are usually repeats but may differ in a detail not shown here. Identical values can stand only once. “Also recorded” adds a separate entry of the source.
# Legend:
# [1] = target: T1, P2X7 receptors (Homo sapiens, UniProt Q99572); assay: Confocal imaging of Alexa-647-ATP labelling, P2X7-expressing cells; type: binding; details: HEK 293T cells expressing P2X7, data not shown
# T1 construct: expressed in transfected cells; host or cells: HEK 293T
# T1 sequence (Q99572 1-595): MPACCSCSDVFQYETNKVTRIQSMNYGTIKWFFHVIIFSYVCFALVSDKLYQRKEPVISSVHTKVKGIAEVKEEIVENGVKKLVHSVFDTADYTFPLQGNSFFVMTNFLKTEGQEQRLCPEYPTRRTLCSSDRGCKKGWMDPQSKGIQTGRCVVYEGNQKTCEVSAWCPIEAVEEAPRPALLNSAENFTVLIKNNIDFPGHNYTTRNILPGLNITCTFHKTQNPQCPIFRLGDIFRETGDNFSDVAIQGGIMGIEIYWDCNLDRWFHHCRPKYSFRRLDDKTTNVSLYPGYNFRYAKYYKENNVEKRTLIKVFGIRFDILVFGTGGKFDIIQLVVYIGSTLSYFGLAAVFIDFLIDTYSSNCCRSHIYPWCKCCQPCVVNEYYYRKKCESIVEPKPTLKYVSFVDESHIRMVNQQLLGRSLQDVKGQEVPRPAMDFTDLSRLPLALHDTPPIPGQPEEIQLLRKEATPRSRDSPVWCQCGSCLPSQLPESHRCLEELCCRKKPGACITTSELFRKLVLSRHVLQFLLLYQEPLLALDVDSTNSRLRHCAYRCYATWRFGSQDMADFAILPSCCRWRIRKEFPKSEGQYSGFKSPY
# [2] = target: P2X1 with N-terminus substituted by that of P2X2 receptor; parameters: method as in Rettinger and Schmalzing, 2004; Bhargava et al., 2013; details: desensitisation slowed by P2X2 N-terminus substitution; ref Rettinger and Schmalzing, 2004; Bhargava et al., 2013; cited from earlier work
# [3] = target: T2, P2X1 receptors (Homo sapiens, UniProt P51575); assay: Confocal microscopy kinetic analysis of Alexa-647-ATP binding at the cell surface; parameters: expressed in transfected cells
# T2 sequence (P51575 1-399): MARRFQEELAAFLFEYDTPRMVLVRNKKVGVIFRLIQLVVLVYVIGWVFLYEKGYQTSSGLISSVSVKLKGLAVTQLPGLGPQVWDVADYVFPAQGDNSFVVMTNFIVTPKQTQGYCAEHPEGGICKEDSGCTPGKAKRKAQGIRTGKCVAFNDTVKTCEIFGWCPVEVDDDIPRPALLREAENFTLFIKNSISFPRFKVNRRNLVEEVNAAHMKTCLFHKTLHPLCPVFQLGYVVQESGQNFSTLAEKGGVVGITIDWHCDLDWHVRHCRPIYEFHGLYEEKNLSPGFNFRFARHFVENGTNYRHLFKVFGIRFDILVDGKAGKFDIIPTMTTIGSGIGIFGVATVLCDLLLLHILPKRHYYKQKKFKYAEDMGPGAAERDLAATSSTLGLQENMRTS
# Procedure: Kinetic parameters were determined according to the following model of a simple bimolecular binding scheme:(2) L+R⇌koffkonLR where L is the free ligand concentration, R is receptor concentration, LR is the ligand–receptor complex and kon and koff are the microscopic association and dissociation rate constants. In a simple scheme such as this, the equilibrium dissociation constant (Kd) is equal to the ratio of dissociation to association rate constants, such that:(3) Kb=k−1/k+1
# According to a one site binding model of the type shown, the observed rates of association and dissociation can be used to estimate k+1 and k−1:(4) 1/τoff=k−1 and(5) 1/τon=k+1[L]+k−1 where τon refers to the rate at which fluorescence increases, τoff refers to the rate that fluorescence decreases and [L] is concentration of the ligand used.
# Intracellular and background fluorescence was also routinely monitored as a control.
# [4] = target: T2, P2X1 receptors; assay: Confocal imaging of Alexa-647-ATP cell-surface labelling and competition by pre-treatment
# From the text: (§1) Live cells were routinely visualised in phosphate buffered saline (PBS (mM); 155 NaCl, 3.0 Na2HPO4, 1.0 KH2PO4, pH 7.4). Static and time-lapse images were collected using a FV300 laser-scanning confocal microscope with either an Olympus UplanFLN 40 × NA1.30 oil immersion objective and a 60 μm confocal aperture, or a PlanApo 60x NA1.42 oil immersion objective and a 60 μm confocal aperture. Images were exported to ImageJ v1.47 (National Institutes of Health, USA) and the Multi Measure plugin (Optinav Inc, WA, USA) used for analysing regions of interest.
# [5] = target: T2, P2X1 receptors; assay: Fluorometric microplate assay with voltage-sensitive (membrane potential) dye, FlexStation III; type: cell-based; parameters: expressed in transfected cells; details: for Hill slope (agonist response): agonist concentration-response; for EC50 / pEC50: agonist, peak fluorescence, HEK 293T cells stably expressing P2X1; for Hill slope (inhibition): inhibition of 10 μM ATP responses
# Procedure: In brief, fragments were assessed for both agonist and antagonist activities using HEK 293T cells stably expressing doxycycline-inducible P2X1 receptors incubated for 45 min with 50 μl of a fluorescent dye sensitive to membrane potential (dye FLIPR Membrane Potential Assay Kit, Molecular Devices, Wokingham, UK) that was dissolved in buffer (mM: 115 NaCl, 1 KCl, 1 MgCl2, 1 CaCl2, 10 HEPES, 10 D-Glucose, pH 7.4). Dye-loaded cells were transferred to a FlexStation III (Molecular Devices) where compound applications were made without removing the dye. At recording intervals of 1.2 s, baseline fluorescence was recorded for 20 s, followed by a further 60 s after the addition of compounds. Ultimately two applications were made to the same cells. In the first, agonist activity was assessed by adding 50 μl novel fragment (final concentration = 300 μM) to each well. Following the completion of the first application, a second 50 μl application of 30 μM ATP (final concentration = 10 μM) was then added to the same cells. A response upon the first (fragment) application and an absence of a response on the second (ATP) application indicated agonist activity followed by inhibition as a result of receptor desensitisation.
# In addition to testing fragments, the reproducibility of each experiment was assessed by including an ATP concentration–response in the first column and a saline control in the last column of the first application. […] The saline control in the first application also meant that an ATP concentration–response could be performed at the end of the second application. This allowed cell viability to be assessed by comparing the ATP concentration–response at the start of the first application with the ATP concentration–response at the end of the second application. […] Measurements from these concentration-dependence experiments were fitted using Eq. (1) below.
# Measurements from the FlexStation III were recorded using the integrated software SoftMax Pro v5.4.5 (Molecular Devices). Analysis of concentration-dependence was performed with GraphPad Prism v5.00 (GraphPad Software, San Diego, CA, USA). Peak fluorescence was measured at a range of ligand concentrations and normalised to the maximum peak fluorescence for the same experiment. The mean and standard error of the mean (S.E.M.) for a series of measurements was plotted against agonist or antagonist concentration and iteratively fitted to the following equation:(1) y=Imin+Fmax−Fmin/1+10^((logR50-x)^nH) where Fmin is the baseline fluorescence, Fmax is the peak fluorescence, R50 is the concentration of ligand needed to generate a half-maximal response, x is the ligand concentration and nH is the Hill slope.
# [6] = target: T3, P2X4 receptors (Homo sapiens, UniProt Q99571); assay: Confocal imaging of Alexa-647-ATP labelling, P2X4-expressing cells; type: binding; details: HEK 293T cells expressing P2X4, data not shown
# T3 construct: expressed in transfected cells; host or cells: HEK 293T
# T3 sequence (Q99571 1-388): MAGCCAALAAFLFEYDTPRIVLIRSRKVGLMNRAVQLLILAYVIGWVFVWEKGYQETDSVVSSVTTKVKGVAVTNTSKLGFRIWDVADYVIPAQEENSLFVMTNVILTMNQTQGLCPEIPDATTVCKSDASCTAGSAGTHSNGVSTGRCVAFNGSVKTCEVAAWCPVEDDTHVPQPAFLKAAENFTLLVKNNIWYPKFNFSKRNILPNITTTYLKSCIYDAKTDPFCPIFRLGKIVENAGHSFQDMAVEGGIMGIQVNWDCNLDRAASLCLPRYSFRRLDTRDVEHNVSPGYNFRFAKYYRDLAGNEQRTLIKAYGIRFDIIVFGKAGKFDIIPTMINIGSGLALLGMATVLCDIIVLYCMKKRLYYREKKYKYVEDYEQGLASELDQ
# [7] = test system: non-induced HEK 293T cells; assay: Confocal imaging of Alexa-647-ATP labelling on non-induced cells; type: binding; details: 150 nM Alexa-647-ATP
# From the text: as §1
# [8] = test system: Untransfected HEK 293T cells; assay: Fluorometric microplate assay with voltage-sensitive dye on untransfected cells; type: cell-based
# [9] = pre-treated with 5 mM, 150 nM Alexa-647-ATP
Hill slope (agonist response) [5],EC50 [5] [µM],pEC50 [5],"Alexa-647-ATP cell-surface fluorescence after pre-treatment [4, 9]",Compound,EC50 [2],fluorescent response to agonist [8],Hill slope (inhibition) [5],other results
–,–,–,not seen,Nc1ncnc2c1ncn2[C@@H]1O[C@H](COP(=O)(O)OP(=O)(O)OP(=O)(O)O)[C@@H](O)[C@H]1O [ATP],low nanomolar,–,–,–
0.9 ± 0.2,5.49,5.26 ± 0.09,not present,Nc1ncnc2c1ncn2[C@@H]1O[C@H](COP(=O)(O)OP(=O)([O-])OP(=O)([O-])O)[C@@H](O)[C@H]1O.[Na+].[Na+] [NaATP],–,did not respond,–,–
–,–,–,–,Cc1ccc(C(=O)Nc2ccc(S(=O)(=O)O)c3cc(S(=O)(=O)O)cc(S(=O)(=O)O)c23)cc1NC(=O)c1cccc(NC(=O)Nc2cccc(C(=O)Nc3cc(C(=O)Nc4ccc(S(=O)(=O)O)c5cc(S(=O)(=O)O)cc(S(=O)(=O)O)c45)ccc3C)c2)c1 [suramin],–,–,1.5 ± 0.7,"Alexa-647-ATP cell-surface fluorescence after pre-treatment ([4]; pre-treatment, concentration not printed, 150 nM Alexa-647-ATP): still seen; also recorded: no competition was seen; Alexa-647-ATP cell-surface fluorescence after pre-treatment ([4]; pre-treatment, concentration not printed, 150 nM Alexa-647-ATP, listed as Suramin): did not alter cell-surface fluorescence"
–,–,–,–,O=C(Nc1cc(C(=O)Nc2ccc(S(=O)(=O)O)cc2S(=O)(=O)O)cc(C(=O)Nc2ccc(S(=O)(=O)O)cc2S(=O)(=O)O)c1)Nc1cc(C(=O)Nc2ccc(S(=O)(=O)O)cc2S(=O)(=O)O)cc(C(=O)Nc2ccc(S(=O)(=O)O)cc2S(=O)(=O)O)c1 [NF449],–,–,1.1 ± 0.2,"Alexa-647-ATP cell-surface fluorescence after pre-treatment ([4]; pre-treated with 250 μM, 150 nM Alexa-647-ATP): not present; also recorded: not seen"
1.0 ± 0.1,14.1,4.85 ± 0.07,–,Nc1ncnc2c1ncn2[C@@H]1O[C@H](COP(=O)(O)OP(=O)([O-])OP(=O)([O-])O)[C@@H](O)[C@H]1O.[Mg+2] [MgATP],–,did not respond,–,–

Compound,Hill slope (agonist response) [5],EC50 [5] [µM],pEC50 [5],"Alexa-647-ATP cell-surface fluorescence after pre-treatment [4, 9]",EC50 [2],fluorescent response to agonist [8],Hill slope (inhibition) [5],other results
Alexa-647-ATP,1.1 ± 0.1,5.75,5.24 ± 0.04,–,low nanomolar,–,–,"cell-surface fluorescence [1]: could not detect any measureable fluorescence; kobs ([3]; 0.5 μM Alexa-647-ATP): 0.79 ± 0.08 min⁻¹; kobs ([3]; 5 μM Alexa-647-ATP): 5.86 ± 0.58 min⁻¹; koff, direct measurement of dissociation ([3]; after rapid washing with PBS, mono-exponential fits): 0.00667 s⁻¹ and 0.00678 s⁻¹; association rate (kon) ([3]; slope of 1/τon (kobs) vs concentration): 1.142e+06 M⁻¹ s⁻¹; dissociation rate (koff) ([3]; y-axis intercept of 1/τon (kobs) vs concentration): 0.136 s⁻¹; cell-surface fluorescence after addition of ligand ([4]; 150 nM Alexa-647-ATP, P2X1-expressing HEK 293T cells): rapid increase in cell-surface fluorescence; cell permeability (fluorescence inside labelled cells) ([4]; live HEK 293T cells, confocal): not cell-permeable; cell-surface fluorescence [6]: could not detect any measureable fluorescence; cell-surface fluorescence [7]: not present"
